Experiment [1] deals with T1, human CYP11B1 (Homo sapiens, UniProt P15538).
T1 construct: expressed in transfected cells
T1 sequence (P15538 25-503): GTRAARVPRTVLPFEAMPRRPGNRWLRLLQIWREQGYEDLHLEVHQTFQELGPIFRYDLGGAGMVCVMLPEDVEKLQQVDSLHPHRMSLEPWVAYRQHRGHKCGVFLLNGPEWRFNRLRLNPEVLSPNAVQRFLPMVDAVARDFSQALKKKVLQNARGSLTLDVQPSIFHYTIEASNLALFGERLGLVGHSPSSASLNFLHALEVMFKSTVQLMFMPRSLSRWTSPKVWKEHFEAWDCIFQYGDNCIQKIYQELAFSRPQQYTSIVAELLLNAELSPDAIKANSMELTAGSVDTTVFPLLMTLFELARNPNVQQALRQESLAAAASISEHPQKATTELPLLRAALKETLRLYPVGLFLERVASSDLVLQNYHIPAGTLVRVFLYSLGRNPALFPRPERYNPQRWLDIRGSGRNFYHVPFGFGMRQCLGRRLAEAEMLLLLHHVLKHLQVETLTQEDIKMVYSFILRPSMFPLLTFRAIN
Put plainly: Inhibition of hCYP11B1 in transfected V79 cells. The note with it: hamster V79 cells expressing human CYP11B1; substrate 11-deoxycortisol 200 nM. It counts as cell-based. The method, boiled down: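 Reactions started with 200 nM 11-deoxycortisol, ran for 30 min and were stopped with ethyl acetate, after a 2 h compound preincubation. The host was stably transfected V79 hamster cells carrying human CYP11B1 plus rat P450 reductase. Percent inhibition, from LC-MS/MS or HPLC (260 nm) quantitation of substrate and product, gave the IC50.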

In experiment [2] the target is T2, human CYP11B2 (Homo sapiens, UniProt P19099).
T2 construct: expressed in transfected cells
T2 sequence (P19099 25-503): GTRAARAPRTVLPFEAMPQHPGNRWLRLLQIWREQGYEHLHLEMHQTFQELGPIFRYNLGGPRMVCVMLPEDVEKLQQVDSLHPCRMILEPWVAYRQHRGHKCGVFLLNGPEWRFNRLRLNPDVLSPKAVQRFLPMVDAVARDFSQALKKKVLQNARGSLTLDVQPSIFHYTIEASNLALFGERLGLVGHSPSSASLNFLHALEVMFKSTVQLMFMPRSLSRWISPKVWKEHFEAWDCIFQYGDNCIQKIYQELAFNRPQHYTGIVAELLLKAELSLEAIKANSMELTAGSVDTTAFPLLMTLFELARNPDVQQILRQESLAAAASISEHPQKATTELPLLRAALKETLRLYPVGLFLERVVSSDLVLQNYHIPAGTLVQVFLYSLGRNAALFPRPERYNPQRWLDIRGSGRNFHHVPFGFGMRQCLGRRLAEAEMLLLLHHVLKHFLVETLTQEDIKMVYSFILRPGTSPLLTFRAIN
Put plainly: Inhibition of hCYP11B2 in transfected V79 cells. It counts as cell-based. As to conditions: hamster V79 cells expressing human CYP11B2; substrate 11-deoxycorticosterone 200 nM. The method, boiled down:
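The substrate (200 nM, 30 min) was added after a 2 hour compound pre-incubation in lentivirus-transduced V79 cells stably expressing human CYP11B2 plus rat NADPH-P450 reductase.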

We go through 24 compounds from patent publication US20260092074A1, “Annelated Pyridines as Steroidogenesis Inhibitors, Preparation Method and Use Thereof” (Guangzhou Vinnocent Pharmaceutical Limited, priority 2022, published 2026).

On to `N#Cc1ccc(-c2cncc3c2OCCN3C(=O)C2CN(S(=O)(=O)c3ccc(C#N)cc3)C2)cc1` [O75, 4-((3-(8-(4-Cyanophenyl)-3,4-dihydro-2H-pyrido[4,3-b][1,4]oxazine-4-carbonyl)azetidin-1-yl)sulfonyl)benzonitrile], for which the IC50 (usually the concentration needed to halve the response being measured) amounted to 0.089 µM in experiment [1] and 0.0013 µM in experiment [2].

On to `COc1cccc(C(=O)N2CC(C(=O)N3CCOc4c(-c5ccc(C#N)cc5)cncc43)C2)c1` [O76, 4-(4-(1-(3-Methoxybenzoyl)azetidine-3-carbonyl)-3,4-dihydro-2H-pyrido[4,3-b][1,4]oxazin-8-yl)benzonitrile], for which the IC50 in experiment [1] was determined as 0.146 µM; in experiment [2], 0.0016 µM.

Turning to `COc1ccc(C(=O)N2CC(C(=O)N3CCOc4c(-c5ccc(C#N)cc5)cncc43)C2)cc1` [O77, 4-(4-(1-(4-Methoxybenzoyl)azetidine-3-carbonyl)-3,4-dihydro-2H-pyrido[4,3-b][1,4]oxazin-8-yl)benzonitrile], the IC50 in experiment [1] was 0.195 µM; in experiment [2], 0.002 µM.

As for `N#Cc1ccc(-c2cncc3c2OCCN3C(=O)C2CN(Cc3cccc(F)c3)C2)cc1` [O78, 4-(4-(1-(3-Fluorobenzyl)azetidine-3-carbonyl)-3,4-dihydro-2H-pyrido[4,3-b][1,4]oxazin-8-yl)benzonitrile], the figures for the IC50 in experiment [1] and in experiment [2] were 0.183 µM and 0.0021 µM, respectively.

For `N#Cc1ccc(-c2cncc3c2OCCN3C(=O)C2CN(Cc3ccc(F)cc3)C2)cc1` [O79, 4-(4-(1-(4-Fluorobenzyl)azetidine-3-carbonyl)-3,4-dihydro-2H-pyrido[4,3-b][1,4]oxazin-8-yl)benzonitrile], the IC50 in experiment [1] came out at 0.137 µM; in experiment [2], 0.0029 µM.

Regarding `N#Cc1ccc(-c2cncc3c2OCCN3C(=O)C2CN(Cc3cccc(C#N)c3)C2)cc1` [O80, 3-((3-(8-(4-Cyanophenyl)-3,4-dihydro-2H-pyrido[4,3-b][1,4]oxazine-4-carbonyl)azetidin-1-yl)methyl)benzonitrile], the IC50 turned out to be 0.185 µM in experiment [1] and 0.001 µM in experiment [2].

For `N#Cc1ccc(CN2CC(C(=O)N3CCOc4c(-c5ccc(C#N)cc5)cncc43)C2)cc1` [O81, 4-(4-(1-(4-Cyanobenzyl)azetidine-3-carbonyl)-3,4-dihydro-2H-pyrido[4,3-b][1,4]oxazin-8-yl)benzonitrile], the figures for the concentration for half-maximal inhibition (IC50) in experiment [1] and in experiment [2] were 0.072 µM and 0.0006 µM, respectively.

With `COc1cccc(CN2CC(C(=O)N3CCOc4c(-c5ccc(C#N)cc5)cncc43)C2)c1` [O82, 4-(4-(1-(3-Methoxybenzyl)azetidine-3-carbonyl)-3,4-dihydro-2H-pyrido[4,3-b][1,4]oxazin-8-yl)benzonitrile], the IC50 in experiment [1] was determined as 0.069 µM; in experiment [2], 0.0014 µM.

For `COc1ccc(CN2CC(C(=O)N3CCOc4c(-c5ccc(C#N)cc5)cncc43)C2)cc1` [O83, 4-(4-(1-(4-Methoxybenzyl)azetidine-3-carbonyl)-3,4-dihydro-2H-pyrido[4,3-b][1,4]oxazin-8-yl)benzonitrile], the IC50 in experiment [1] was 0.112 µM; in experiment [2], 0.001 µM.

On to `N#Cc1ccc(-c2cncc3c2OCCN3C(=O)C2CN(c3cccc(F)c3)C2)cc1` [O84, 4-(4-(1-(3-Fluorophenyl)azetidine-3-carbonyl)-3,4-dihydro-2H-pyrido[4,3-b][1,4]oxazin-8-yl)benzonitrile], for which the 50% inhibitory concentration (IC50) is 0.053 µM in experiment [1] and 0.0016 µM in experiment [2].

On to `N#Cc1ccc(-c2cncc3c2OCCN3C(=O)C2CN(c3ccc(F)cc3)C2)cc1` [O85, 4-(4-(1-(4-Fluorophenyl)azetidine-3-carbonyl)-3,4-dihydro-2H-pyrido[4,3-b][1,4]oxazin-8-yl)benzonitrile], for which the concentration for half-maximal inhibition (IC50) is 0.064 µM in experiment [1] and 0.0046 µM in experiment [2].

Consider `N#Cc1ccc(-c2cncc3c2OCCN3C(=O)C2CN(c3cccc(C#N)c3)C2)cc1` [O86, 3-(3-(8-(4-Cyanophenyl)-3,4-dihydro-2H-pyrido[4,3-b][1,4]oxazine-4-carbonyl)azetidin-1-yl)benzonitrile], for which the IC50 in experiment [1] came to 0.072 µM; in experiment [2], 0.0008 µM.

On to `N#Cc1ccc(-c2cncc3c2OCCN3C(=O)C2CN(c3ccc(C#N)cc3)C2)cc1` [O87, 4-(3-(8-(4-Cyanophenyl)-3,4-dihydro-2H-pyrido[4,3-b][1,4]oxazine-4-carbonyl)azetidin-1-yl)benzonitrile], for which the half-maximal inhibitory concentration (IC50) worked out at 0.055 µM in experiment [1] and 0.0025 µM in experiment [2].

Consider `O=C(C1CN(Cc2cccc(F)c2)C1)N1CCOc2c(-c3ccc4ncsc4c3)cncc21` [O88, (8-(Benzo[d]thiazol-6-yl)-2,3-dihydro-4H-pyrido[4,3-b][1,4]oxazin-4-yl)(1-(3-fluorobenzyl)azetidin-3-yl)methanone], for which the 50% inhibitory concentration (IC50) was determined as 0.485 µM in experiment [1] and 0.006 µM in experiment [2].

With `O=C1Cc2cc(-c3cncc4c3OCCN4C(=O)C3CN(Cc4cccc(F)c4)C3)ccc2N1` [O89, 5-(4-(1-(3-Fluorobenzyl)azetidine-3-carbonyl)-3,4-dihydro-2H-pyrido[4,3-b][1,4]oxazin-8-yl)indolin-2-one], the IC50 stood at 2.55 µM in experiment [1] and 0.0156 µM in experiment [2].

In the case of `O=C(C1CN(Cc2cccc(F)c2)C1)N1CCOc2c(-c3ccc4nccn4c3)cncc21` [O90, (1-(3-Fluorobenzyl)azetidin-3-yl)(8-(imidazo[1,2-a]pyridin-6-yl)-2,3-dihydro-4H-pyrido[4,3-b][1,4]oxazin-4-yl)methanone], the values for the IC50 in experiment [1] and in experiment [2] were 3.26 µM and 0.0488 µM, respectively.

For `O=C(C1CN(Cc2cccc(F)c2)C1)N1CCOc2c(-c3cc4ccc(Cl)cc4[nH]3)cncc21` [O91, (8-(6-Chloro-1H-indol-2-yl)-2,3-dihydro-4H-pyrido[4,3-b][1,4]oxazin-4-yl)(1-(3-fluorobenzyl)azetidin-3-yl)methanone], the figures for the IC50 in experiment [1] and in experiment [2] were 4.16 µM and 0.092 µM, respectively.

Consider `N#Cc1ccc2cc(-c3cncc4c3OCCN4C(=O)C3CN(Cc4cccc(F)c4)C3)[nH]c2c1` [O92, 2-(4-(1-(3-Fluorobenzyl)azetidine-3-carbonyl)-3,4-dihydro-2H-pyrido[4,3-b][1,4]oxazin-8-yl)-1H-indole-6-carbonitrile], for which the IC50 in experiment [1] is 4.44 µM; in experiment [2], 0.0284 µM.

`O=C(C1CN(Cc2cccc(F)c2)C1)N1CCOc2c(-c3cc4ccc(F)cc4[nH]3)cncc21` [O93, (8-(6-Fluoro-1H-indol-2-yl)-2,3-dihydro-4H-pyrido[4,3-b][1,4]oxazin-4-yl)(1-(3-fluorobenzyl)azetidin-3-yl)methanone]: the IC50 is 4.17 µM in experiment [1] and 0.09 µM in experiment [2].

For the compound `N#Cc1ccc2[nH]c(-c3cncc4c3OCCN4C(=O)C3CN(Cc4cccc(F)c4)C3)cc2c1` [O94, 2-(4-(1-(3-Fluorobenzyl)azetidine-3-carbonyl)-3,4-dihydro-2H-pyrido[4,3-b][1,4]oxazin-8-yl)-1H-indole-5-carbonitrile], the IC50 in experiment [1] turned out to be 0.381 µM; in experiment [2], 0.0047 µM.

`O=C(C1CN(Cc2cccc(F)c2)C1)N1CCOc2c(-c3cc4cc(Cl)ccc4o3)cncc21` [O95, (8-(5-Chlorobenzofuran-2-yl)-2,3-dihydro-4H-pyrido[4,3-b][1,4]oxazin-4-yl)(1-(3-fluorobenzyl)azetidin-3-yl)methanone]: the IC50 was found to be 4.59 µM in experiment [1] and 0.041 µM in experiment [2].

On to `N#Cc1ccc2oc(-c3cncc4c3OCCN4C(=O)C3CN(Cc4cccc(F)c4)C3)cc2c1` [O96, 2-(4-(1-(3-Fluorobenzyl)azetidine-3-carbonyl)-3,4-dihydro-2H-pyrido[4,3-b][1,4]oxazin-8-yl)benzofuran-5-carbonitrile], for which the figures for the IC50 in experiment [1] and in experiment [2] were 1.34 µM and 0.0052 µM, respectively.

`N#CN1CC=C(c2cncc3c2OCCN3C(=O)C2CN(Cc3cccc(F)c3)C2)CC1` [O97, 4-(4-(1-(3-Fluorobenzyl)azetidine-3-carbonyl)-3,4-dihydro-2H-pyrido[4,3-b][1,4]oxazin-8-yl)-3,6-dihydropyridine-1 (2H)-carbonitrile]: the figures for the IC50 in experiment [1] and in experiment [2] were 0.219 µM and 0.035 µM, respectively.

Take `N#CN1CCN(c2cncc3c2OCCN3C(=O)C2CN(Cc3cccc(F)c3)C2)CC1` [O98, 4-(4-(1-(3-Fluorobenzyl)azetidine-3-carbonyl)-3,4-dihydro-2H-pyrido[4,3-b][1,4]oxazin-8-yl)piperazine-1-carbonitrile]: the values for the 50% inhibitory concentration (IC50) in experiment [1] and in experiment [2] were 0.677 µM and 0.046 µM, respectively.
